*1 amine or outer side, *2 acyl side, *3 side chain or, on linkers, in order; H or OH if unused. Where a SMILES comes first, the peptide text is derived from it. Bridges are numbered along the chain shown (N, C = ends). Side-chain parts run from the residue outwards. [ ]: non-standard residue; d: D form. The star is where a group is joined. C20 diacid = O=C(O)CCCCCCCCCCCCCCCCCCC(=O)*; γGlu = O=C(O)[C@H](CCC(=O)[*:2])N[*:1]; AEEA = NCCOCCOCC(=O)O; Aib = CC(C)(N)C(=O)O
Experiments:
GIPR = target: T1, GIPR (Homo sapiens, UniProt P48546); experiment: GIPR agonist activity test in vitro (cAMP assay); type: cell-based; conditions: CHO host cell
T1 construct: host or cells: CHO
T1 sequence (P48546 22-466): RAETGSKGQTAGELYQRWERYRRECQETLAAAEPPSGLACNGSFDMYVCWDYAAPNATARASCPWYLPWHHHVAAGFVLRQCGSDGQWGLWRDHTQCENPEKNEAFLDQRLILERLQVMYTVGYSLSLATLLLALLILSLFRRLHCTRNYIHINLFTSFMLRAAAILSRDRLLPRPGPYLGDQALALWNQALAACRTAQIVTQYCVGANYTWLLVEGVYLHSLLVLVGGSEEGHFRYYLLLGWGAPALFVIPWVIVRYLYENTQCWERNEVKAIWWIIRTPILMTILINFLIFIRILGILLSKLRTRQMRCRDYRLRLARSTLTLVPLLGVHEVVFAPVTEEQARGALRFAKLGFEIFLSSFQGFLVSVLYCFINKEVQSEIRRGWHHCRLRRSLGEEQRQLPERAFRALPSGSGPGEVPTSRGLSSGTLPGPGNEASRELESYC
Description: The cell strains were constructed by Shanghai WuXi AppTec.
The test compound was serially diluted 4-fold with 10 points. The initial concentration was 30 μM, and the dilution was completed with Bravo.
1) 100 nL of the compound was transferred to OptiPlate-384 plate using Echo.
7) The GLP-1R/GIPR cell concentration was diluted to 2.0*10^5/mL with the experimental buffer.
8) […] of the diluted cell suspension was transferred into the OptiPlate-384 plate.
9) The diluted cell suspension was incubated at room temperature for 30 minutes.
2) 10 μL of cAMP detection reagent was added.
3) The OptiPlate-384 plate was covered with TopSeal-A film and incubated at room temperature for 60 minutes.
TopSeal-A was removed and read in EnVision.

human plasma albumin = experiment: Plasma protein binding (PPB) test, human; type: in vitro ADME; parameters: key: NA means the plasma-protein binding is too high, and no free drug can be detected under a normal concentration of plasma protein; conditions: ultracentrifugation
Description: (§1) To study the binding of the test compounds to human/mouse plasma albumin.
(§2) 1. Matrix preparation: On the day of the experiment, the plasma was thawed in cold water and centrifuged at 3220 rpm for 5 min to remove all blood clots. The pH of the obtained plasma was measured and adjusted to 7.4±0.1 using 1% phosphoric acid or 1N sodium hydroxide as needed.
(§3) 2. Dilution steps of the test compounds: The test compounds were dissolved in dimethyl sulfoxide (DMSO) to prepare stock solutions at concentrations of 10 mM and 2 mM, respectively. A 40 μM working solution was prepared by diluting 2 μL of the stock solution (2 mM) with 98 μL of DMSO. A 400 μM working solution of the control compound was prepared by diluting 10 μL of the stock solution with 240 μL of DMSO. The working solution of the compound (5 μL) was mixed with the blank matrix (995 μL) at a ratio of 1:200 to prepare the loading matrix.
3.1 An equal amount of 30 μL of the loading matrix (n=2) was transferred to the sample collection plate to prepare samples of time 0 (TO) for residue determination. The samples were immediately matched to the corresponding blank buffer in a final volume of 60 μL with a 1:1 volume ratio of plasma to buffer in each well. Then, 60 μL of 4% H3PO4 in H2O and 480 μL of stop solution containing an internal standard were then added to the TO samples of the test compounds. […]

[1] = Plasma stability (PLS) test, mouse plasma; type: in vitro ADME; conditions: pH 7.4, 37° C., up to 120 min, read-out: PLS (H/M) T1/2
Description: To study the stability of test compounds in the plasma of normal mice.
1. Before the experiment, the coagulated frozen plasma was thawed in a water bath at 37° C. Plasma was centrifuged at 4000 rpm for 5 min. If there was blood clot, the blood clot was removed and the pH value was adjusted to 7.4±0.1.
2. Preparation of the test compound solution: 100 μM of the solution was prepared by dilution with DMSO.
3. 98 μL of blank control plasma was added to 2 μL of the test compound solution (100 μM), so that the final concentration of the mixed solution of the two reached 2 μM, and the mixed solution was placed in a 37° C. water bath for incubation.
4. At each time point (0, 10, 30, 60, and 120 min), 1(X) μL of H3PO4 solution and 800 μL of stop solution (200 ng/mL of tolbutamide and 200 ng/mL of labetalol in 100% methanol solution) were added to precipitate protein, and mixed thoroughly.
5. The samples were centrifuged at 4000 rpm for 20 min, and 1(X) μL of supernatant was taken from each well for LC-MS/MS analysis.

mouse plasma albumin = experiment: Plasma protein binding (PPB) test, mouse; type: in vitro ADME; parameters: key to PPB % unbound (H/M), M: NA means the plasma-protein binding is too high, and no free drug can be detected under a normal concentration of plasma protein; conditions: ultracentrifugation
Description: as §1, §2, §3
3.1 An equal amount of 30 μL of the loading matrix (n=2) was transferred to the sample collection plate to prepare samples of time 0 (TO) for residue determination. The samples were immediately matched to the corresponding blank buffer in a final volume of 60 μL with a 1:1 volume ratio of plasma to buffer in each well. Then, 60 μL of 4% H3PO4 in H2O and 480 μL of stop solution containing an internal standard were then added to the TO samples of the test compounds. They were then stored at 2-8° C. with other samples pending for further processing.
3.2 The remaining plasma samples were pre-incubated in a carbon dioxide incubator at 37±1° C. for 30 min. The prepared protein-free samples (F samples) and loading matrix samples (230 μL) were transferred to polycarbonate tubes (n=2) and ultracentrifuged at 37° C. and 155000×g (35000 rpm) for 4 hours.
3.3 To prepare T samples (test samples), an additional matrix-containing sample was transferred to a separate 96-well plate (sample incubation plate) and incubated at 37° C. for 4 hours.
3.4 After centrifugation, 30 μL of protein-free sample and 30 μL of T sample were transferred from the second layer of supernatant (below the upper layer) to a new sample collection plate. Each sample was mixed with the corresponding blank buffer or matrix in a final volume of 60 μL with a matrix:buffer volume ratio of 1:1. 60 μL of 4% H3PO4 aqueous solution and 480 μL of stop solution (containing internal standard) were added to all samples. The mixture was centrifuged at 4000 rpm for 20 min, and 100 μL of the supernatant of each sample was taken for LC-MS/MS analysis.

[2] = Pharmacokinetic evaluation in C57BL/6 mice; type: in vivo; conditions: mouse, plasma, 0.048 mg/kg
Description: To test the pharmacokinetics of compounds in C57BL/6 mice in vivo
The pharmacokinetic characteristics of the compounds in rodents after intravenous injection and subcutaneous injection were tested according to the standard protocol. In the experiment, the candidate compounds were formulated into clear solutions, and a single intravenous injection (IV, 0.048 mpk) and subcutaneous injection (SC, 0.048 mpk) were given to the mice. The vehicle for intravenous injection was PBS buffer (pH=7), and the vehicle for subcutaneous injection was citrate buffer (20 mM, pH=7). Whole blood was collected and prepared to obtain plasma. Drug concentration was analyzed by LC-MS/MS method, and pharmacokinetic parameters were calculated by Phoenix WinNonlin software.

Q: Which EC50 (GIPR; GIPR Agonist Activity EC50 (+) 1% HSA, with 1% HSA) does the source give for `CC[C@H](C)[C@H](NC(=O)[C@H](CC(C)C)NC(=O)[C@H](Cc1c[nH]c2ccccc12)NC(=O)[C@@H]1CCC(=O)NCCCC[C@H](NC(=O)[C@H](CCC(N)=O)NC(=O)[C@H](C)NC(=O)[C@H](CCCCNC(=O)COCCOCCNC(=O)COCCOCCNC(=O)CC[C@H](NC(=O)CCCCCCCCCCCCCCCCCCC(=O)O)C(=O)O)NC(=O)[C@H](CCCCN)NC(=O)[C@H](CC(=O)O)NC(=O)[C@H](CC(C)C)NC(=O)C(C)(C)NC(=O)[C@@H](NC(=O)[C@H](CO)NC(=O)[C@H](Cc2ccc(O)cc2)NC(=O)[C@H](CC(=O)O)NC(=O)[C@H](CO)NC(=O)[C@@H](NC(=O)[C@H](Cc2ccccc2)NC(=O)[C@@H](NC(=O)CNC(=O)[C@H](CCC(=O)O)NC(=O)C(C)(C)NC(=O)[C@@H](N)Cc2ccc(O)cc2)[C@@H](C)O)[C@@H](C)O)[C@@H](C)CC)C(=O)N[C@@H](C)C(=O)N[C@@H](Cc2ccccc2)C(=O)N[C@@H](C(C)C)C(=O)N1)C(=O)N[C@@H](C)C(=O)NCC(=O)NCC(=O)N1CCC[C@H]1C(=O)N[C@@H](CO)C(=O)N[C@@H](CO)C(=O)NCC(=O)N[C@@H](C)C(=O)N1CCC[C@H]1C(=O)N1CCC[C@H]1C(=O)N1CCC[C@H]1C(=O)N[C@@H](CO)C(N)=O` [WX-001] (H-Y[Aib]EGTFTSDYSI[Aib]LDKK([AEEA-AEEA-γGlu-C20 diacid])AQKAFVEWLIAGGPSSGAPPPS-NH2; lactam 20-24) here?
A: The EC50 was 23 nM.

Q: And the EC50 (GIPR; GIPR Agonist Activity EC50 (−) 1% HSA, without 1% HSA)?
A: Its EC50 is 0.44 nM.

Q: What about the “PPB % unbound (H/M), H” value (human plasma albumin) of the same molecule?
A: The value was “NA/NA”.

Q: And the half-life at 2 μM [1]?
A: The half-life at 2 μM was over 4.82 h.

Q: What about the “PPB % unbound (H/M), M” value (mouse plasma albumin) of the same molecule?
A: The value was “NA/NA”.

Q: And the half-life ([2]; 0.048 mpk IV/SC, read-out: Half-life T1/2 (converted))?
A: Its half-life is 15.5 h.

Q: What about the clearance ([2]; IV 0.048 mpk) of the same molecule?
A: The clearance was 5.28 mL/h/kg.

Q: What about the AUC(0-t) ([2]; SC 0.048 mpk, read-out: SC Concentration Integral AUC0-72 h) of the same molecule?
A: Its AUC(0-t) is 1.55 µM·h.

Q: What about the bioavailability ([2]; subcutaneous, SC 0.048 mpk vs IV 0.048 mpk, read-out: Bioavailability F) of the same molecule?
A: Its bioavailability is 85.5%.
